PubChem BioAssay AID2060604 (Molecular Pharmacology Branch, DTP, NCI, 2025)

Test system: 379773-124-R-J2-PDC complex spheroids, viability % test/control
Assay: Anticancer human tumor 379773-124-R-J2-PDC patient-derived endometrial carcinoma cell line growth inhibition [CLK]
Conditions: for IC50: curve of first compound; for viability, T/C: stronger effect = lower value
Outline: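 Multi-cell-type spheroids combined patient-derived tumor cells with HUVEC endothelial cells and human mesenchymal stem cells. Paired agents were dosed in half-log steps down from about clinical Cmax, or from 10 microM where Cmax was unknown.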

[1] = second compound 0.0316 µM, first compound 0.0316 µM
[2] = second compound 0.0316 µM, first compound 0.1 µM
[3] = second compound 0.0316 µM, first compound 0.316 µM
[4] = second compound 0.0316 µM, first compound 1 µM
[5] = second compound 0.0316 µM, first compound 3.16 µM
[6] = second compound 0.0316 µM, first compound 10 µM
[7] = second compound 0.1 µM, first compound 0.0316 µM
[8] = second compound 0.1 µM, first compound 0.1 µM
[9] = second compound 0.1 µM, first compound 0.316 µM
[10] = second compound 0.1 µM, first compound 1 µM
[11] = second compound 0.1 µM, first compound 3.16 µM
[12] = second compound 0.1 µM, first compound 10 µM
[13] = second compound 0.316 µM, first compound 0.0316 µM
[14] = second compound 0.316 µM, first compound 0.1 µM
[15] = second compound 0.316 µM, first compound 0.316 µM
[16] = second compound 0.316 µM, first compound 1 µM
[17] = second compound 0.316 µM, first compound 3.16 µM
[18] = second compound 0.316 µM, first compound 10 µM
[19] = second compound 1 µM, first compound 0.0316 µM
[20] = second compound 1 µM, first compound 0.1 µM
[21] = second compound 1 µM, first compound 0.316 µM
[22] = second compound 1 µM, first compound 1 µM
[23] = second compound 1 µM, first compound 3.16 µM
[24] = second compound 1 µM, first compound 10 µM
[25] = second compound 3.16 µM, first compound 0.0316 µM
[26] = second compound 3.16 µM, first compound 0.1 µM
[27] = second compound 3.16 µM, first compound 0.316 µM
[28] = second compound 3.16 µM, first compound 1 µM
[29] = second compound 3.16 µM, first compound 3.16 µM
[30] = second compound 3.16 µM, first compound 10 µM
[31] = second compound 10 µM, first compound 0.0316 µM
[32] = second compound 10 µM, first compound 0.1 µM
[33] = second compound 10 µM, first compound 0.316 µM
[34] = second compound 10 µM, first compound 1 µM
[35] = second compound 10 µM, first compound 3.16 µM
[36] = second compound 10 µM, first compound 10 µM
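Also: compound exposure lasted seven days before the viability readout.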
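For viability, T/C in this document: 100% = DMSO vehicle control wells.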

## Nc1ccn(C2OC(CO)C(O)C2(F)F)c(=O)n1 (centres undefined) + CNC(=O)c1ccc(Nc2nc(OC3CCCC3)c3c(-c4ccc5nc(C)oc5c4)c[nH]c3n2)c(OC)c1
Second compound 0.0316 µM
  IC50: < 31.6 nM
Second compound 0.1 µM
  IC50: < 31.6 nM
Second compound 0.316 µM
  IC50: < 31.6 nM
Second compound 1 µM
  IC50: < 31.6 nM
Second compound 3.16 µM
  IC50: < 31.6 nM
Second compound 10 µM
  IC50: < 31.6 nM
[1]
  viability, T/C: 6.55%
[2]
  viability, T/C: 3.76%
[3]
  viability, T/C: 4.74%
[4]
  viability, T/C: 5.45%
[5]
  viability, T/C: 5.63%
[6]
  viability, T/C: 3.43%
[7]
  viability, T/C: 7.18%
[8]
  viability, T/C: 4.04%
[9]
  viability, T/C: 4.89%
[10]
  viability, T/C: 3%
[11]
  viability, T/C: 4.22%
[12]
  viability, T/C: 2.03%
[13]
  viability, T/C: 6.96%
[14]
  viability, T/C: 5.27%
[15]
  viability, T/C: 3.29%
[16]
  viability, T/C: 3.59%
[17]
  viability, T/C: 3.28%
[18]
  viability, T/C: 2.14%
[19]
  viability, T/C: 12.8%
[20]
  viability, T/C: 6.01%
[21]
  viability, T/C: 3.29%
[22]
  viability, T/C: 2.77%
[23]
  viability, T/C: 3.38%
[24]
  viability, T/C: 1.2%
[25]
  viability, T/C: 13.6%
[26]
  viability, T/C: 6.51%
[27]
  viability, T/C: 2.77%
[28]
  viability, T/C: 2.75%
[29]
  viability, T/C: 2.62%
[30]
  viability, T/C: 0.99%
[31]
  viability, T/C: 13.8%
[32]
  viability, T/C: 8.14%
[33]
  viability, T/C: 4.09%
[34]
  viability, T/C: 2.72%
[35]
  viability, T/C: 3.57%
[36]
  viability, T/C: 1.76%

## O=C(c1cc(Cc2n[nH]c(=O)c3ccccc23)ccc1F)N1CCN(C(=O)C2CC2)CC1 + CNC(=O)c1ccc(Nc2nc(OC3CCCC3)c3c(-c4ccc5nc(C)oc5c4)c[nH]c3n2)c(OC)c1
Second compound 0.0316 µM
  IC50: 5600 nM
Second compound 0.1 µM
  IC50: < 31.6 nM
Second compound 0.316 µM
  IC50: < 31.6 nM
Second compound 1 µM
  IC50: < 31.6 nM
Second compound 3.16 µM
  IC50: < 31.6 nM
Second compound 10 µM
  IC50: < 31.6 nM
[1]
  viability, T/C: 76.2%
[2]
  viability, T/C: 75.1%
[3]
  viability, T/C: 67.7%
[4]
  viability, T/C: 75.4%
[5]
  viability, T/C: 69.9%
[6]
  viability, T/C: 29.6%
[7]
  viability, T/C: 41.1%
[8]
  viability, T/C: 41.7%
[9]
  viability, T/C: 37.8%
[10]
  viability, T/C: 31.9%
[11]
  viability, T/C: 36.3%
[12]
  viability, T/C: 15.3%
[13]
  viability, T/C: 51.7%
[14]
  viability, T/C: 42.3%
[15]
  viability, T/C: 35.5%
[16]
  viability, T/C: 33.7%
[17]
  viability, T/C: 33%
[18]
  viability, T/C: 13.7%
[19]
  viability, T/C: 39.9%
[20]
  viability, T/C: 32.2%
[21]
  viability, T/C: 29.8%
[22]
  viability, T/C: 33.3%
[23]
  viability, T/C: 23.2%
[24]
  viability, T/C: 10.2%
[25]
  viability, T/C: 32.8%
[26]
  viability, T/C: 34.1%
[27]
  viability, T/C: 26.3%
[28]
  viability, T/C: 33.5%
[29]
  viability, T/C: 31%
[30]
  viability, T/C: 8.47%
[31]
  viability, T/C: 29.5%
[32]
  viability, T/C: 29.9%
[33]
  viability, T/C: 24.8%
[34]
  viability, T/C: 23.9%
[35]
  viability, T/C: 23.2%
[36]
  viability, T/C: 6.48%
